{"source": "patent US11697818B2", "about": "“Pyruvate-responsive biosensor, and construction method and use thereof” (priority 2020, dated 2023)", "data": [{"tested_on": "strain 168-PR containing the plasmid PHT01-P43D-GFP", "assay": "Specificity (orthogonality) of pyruvate biosensor towards inducing agents", "format": "cell-based, Bacillus subtilis", "settings": "5 g of inducing agent added to the medium; strain 168-PR with PHT01-P43D-GFP", "experimental": "2. Detection method for Relative fluorescence intensity: The strain to be determined for the fluorescence intensity is streaked into LB solid medium containing chloramphenicol (5 μg/mL) in a plate. Single colonies are picked up and inoculated into LB liquid medium and incubated at 37° C. and 220 rpm for 12 h. Then the cell suspension is inoculated into 200 μL of LB liquid medium in a 96-well fluorescent microplate in an amount of 2% (V/V), and incubated at 37° C. and 900 rpm. The microplate is removed at different times, and the fluorescence intensity (excitation light: 488 nm, absorption light: 520 nm) and cell density (600 nm) are determined on the Cytation microplate reader (BioTek).", "values": [{"smiles": "C[C@H](N)C(=O)O", "note": "[alanine]", "induction of the activity of the pyruvate biosensor": "only pyruvate can significantly induce"}, {"smiles": "CC(=O)C(C)O", "note": "(stereo not shown) [acetoin]", "induction of the activity of the pyruvate biosensor": "only pyruvate can significantly induce"}, {"smiles": "O=C[C@@H](O)[C@H](O)[C@H](O)CO", "note": "[arabinose]", "induction of the activity of the pyruvate biosensor": "only pyruvate can significantly induce"}, {"smiles": "CC(=O)O", "note": "[acetic acid]", "induction of the activity of the pyruvate biosensor": "only pyruvate can significantly induce"}, {"smiles": "OC[C@H]1O[C@@H](O[C@H]2[C@H](O)[C@@H](O)C(O)O[C@@H]2CO)[C@H](O)[C@@H](O)[C@H]1O", "note": "(stereo partly shown) [lactose]", "induction of the activity of the pyruvate biosensor": "only pyruvate can significantly induce"}, {"smiles": "CC(O)C(=O)O", "note": "(stereo not shown) [lactic acid]", "induction of the activity of the pyruvate biosensor": "only pyruvate can significantly induce"}, {"smiles": "O=C(O)[C@@H](O)[C@@H](O)[C@H](O)[C@@H](O)C(=O)O", "note": "[glucaric acid]", "induction of the activity of the pyruvate biosensor": "only pyruvate can significantly induce"}, {"smiles": "O=C(O)CCC(=O)C(=O)O", "note": "[α-ketoglutaric acid]", "induction of the activity of the pyruvate biosensor": "only pyruvate can significantly induce"}, {"smiles": "O=C[C@H](O)[C@@H](O)[C@H](O)CO", "note": "[xylose]", "induction of the activity of the pyruvate biosensor": "only pyruvate can significantly induce"}, {"smiles": "CC(C)S[C@@H]1O[C@H](CO)[C@H](O)[C@H](O)[C@H]1O", "note": "[IPTG]", "induction of the activity of the pyruvate biosensor": "only pyruvate can significantly induce"}]}]}
